Measured values reported in patent EP2826473A1, “NOVEL USE OF PATCHOULOL” (Chengdu Huasun Group Inc., Ltd., priority 2012, dated 2013).
Values after ≈ are worked out from the molar mass of the structure shown. Where two headings read alike, the source gives them in different places.

Tests used:
[1] = test system: Methicillin-resistant Staphylococcus aureus ATCC 43300; assay: in vivo protection of model mice infected with methicillin-resistant Staphylococcus aureus; design: species or system KM mice; settings: intraperitoneal injection once a day, within 14 days; for Survival number: 10 animals
Protocol: Tested strains' virulence assay: Methicillin-resistant Staphylococcus aureus was cultured in incubator at 37°C to reach exponential phase of growth, and then diluted with normal saline to obtain different gradient concentrations of bacterial liquid. Different concentrations of bacterial liquid were taken and mixed with equivalent 10% gastric mucin. Bacterial liquid was administrated to mice at 0.5 ml/20 g by intraperitoneal injection, and 5% gastric mucin was used as control. Under a premise of no control mice death, the death rate of mice within 14 days was recorded, and the minimum bacterial volumes leading to death of whole mice were measured, i.e. the minimum lethal dose (MLD) of bacterial liquid.
Pretesting of effective dose in vivo: Infection model mice infected by Methicillin-resistant Staphylococcus aureus were randomly divided into a few of groups (four mice per group), and a graded dose of each bacterial liquid was separately administrated to mice in each test group at one time per day. Moreover, administration of test drug was done one day ahead of schedule, and toxic substances were not eliminated until 0.5 h after administration on the second day. The death status of mice within 14 days was observed, to determine the dosage used in the formal experiment.
KM mice (grade SPF), half male and half female, weighing 18-22 g were randomly divided into […] groups with ten mice for each group, i.e. the group receiving vancomycin hydrochloride for injection; the groups receiving high, medium, and low doses of patchoulol; blank group; model group; and control group receiving gastric mucin. All of the mice were administrated by intraperitoneal injection once a day. The mice were administrated one day in advance and then attacked after 0.5h of administration on the second day, i.e. intraperitoneally injected with methicillin-resistant Staphylococcus aureus liquid containing 5% gastric mucin. Amongst, mice in the model group were given normal saline instead of test drug; mice in the blank group were not given drugs and attacked; mice in the gastric mucin control group were not given test drug, but only injected with 5% gastric mucin without bacteria.
The death status of mice within 14 days after injection of bacteria was observed, and its survival rate was recorded.

Streptococcus pneumoniae = assay: in vitro bacteriostatic activity, agar dilution MIC; format: cell-based
[2] = test system: carrageenan-induced paw edema; settings: cited from earlier work
Streptococcus agalactiae = assay: in vitro bacteriostatic activity, agar dilution MIC; format: cell-based; settings: Streptococcus agalactiae 12-1
Staphylococcus sciuri = assay: as above; format: cell-based; settings: Mammaliicoccus sciuri; Staphylococcus sciuri 12-1
[3] = test system: Staphylococcus aureus MSSA; assay: as above; format: cell-based; settings: Staphylococcus aureus, MSSA, read-out: MIC
[4] = test system: Staphylococcus epidermidis MSSE; assay: as above; format: cell-based; settings: Staphylococcus epidermidis, read-out: MIC
Klebsiella pneumonia E^- = assay: as above; format: cell-based
Staphylococcus xylosus = assay: as above; format: cell-based
Shiglla flexneri = assay: as above; format: cell-based
Protocol: (§1) Preparation of drug-containing flat plates: patchoulol was diluted by coubling double dilution in DMSO, and 1 ml and 14 ml of sterile MH culture media in different gradient concentrations were respectively added to the disposable sterile petri dishes. Tested drugs were respectively diluted to different gradient concentrations from 768 to 0.006 µg/ml, fully mixed, and dried to reserve. As mentioned above, replacing tested drug with same amount of normal saline was used to prepare positive control plates.
(§2) Preparation of bacterial liquid: Tested strains and drug-sensitive strains used for quality control were diluted with stroke-physiological saline solution to the concentration of 10^6 CFU/ml.
(§3) Bacteriostatic activity assay […]: using multipoint inoculation instrument, the tested strain liquid was added to the drug-containing flat plates with different gradient concentrations and positive control plates respectively, and replacing the bacterial liquid with 5 µL normal saline, served as the negative control.
(§4) Staphylococcus aureus and Staphylococcus epidermidis were cultured at 35-37°C for 18-24 h in MH media (containing 2% NaCl); Streptococcus pneumonia was cultured in brain heart infusion agar media (containing 5% goat blood) within an incubator under 5% CO2 at 35°C for 24 hours; Gram-negative bacteria and other strains were placed in an incubator at 35-37°C and cultured for 18-20 h; Results were observed and recorded.
(§5) Result assessment: The minimum concentration of drug in no bacterial growth plates was regarded as the minimum inhibitory concentration (MIC) of the drug to the stain.

Escherichia coli E^+ = assay: as above; format: cell-based
Protocol: as §1, §2, §3, §4, §5

Klebsiella pneumonia E^+ = assay: as above; format: cell-based; settings: Klebsiella pneumoniae
Enterobacter cloacae = assay: as above; format: cell-based
Kurthia gibsonii = assay: as above; format: cell-based

For `C[C@H]1CC[C@@]2(O)C(C)(C)[C@@H]3CC[C@@]2(C)[C@H]1C3` (stereo in doubt) [PC, (1R,4S,4aS,6R,8aS)-octahydro-4,8a,9,9-tetramethyl-1,6-methanonaphthalen-1(2H)-ol], the Survival number ([1]; High dose 200 mg/kg) was 10, the “Survial rate (%)” value ([1]; High dose 200 mg/kg) was 100% and the Survival number ([1]; Low dose 50 mg/kg) was 8. For the same compound, the “Survial rate (%)” value ([1]; Low dose 50 mg/kg) was 80%, the Survival number ([1]; Medium dose 100 mg/kg) was 10 and the “Survial rate (%)” value ([1]; Medium dose 100 mg/kg) was 100%. It also gave an MIC (Streptococcus pneumoniae; ATCC49619, Streptococcus pneumonia ATCC 49619) of 200 µg/mL (≈ 899 µM), an MIC (Streptococcus pneumoniae; Streptococcus pneumonia 12-6) of 100 µg/mL (≈ 450 µM) and an MIC (Streptococcus pneumoniae; Streptococcus pneumonia 12-7) of 200 µg/mL (≈ 899 µM). It also gave an MIC (Streptococcus pneumoniae; Streptococcus pneumonia 12-8) of 100 µg/mL (≈ 450 µM), an MIC (Streptococcus pneumoniae; Streptococcus pneumonia 12-9) of 100 µg/mL (≈ 450 µM) and an MIC (Streptococcus pneumoniae; Streptococcus pneumonia 12-10) of 200 µg/mL (≈ 899 µM). The MIC (Streptococcus pneumoniae; Streptococcus pneumoniae 12-1) was 200 µg/mL (≈ 899 µM), the MIC (Streptococcus pneumoniae; Streptococcus pneumoniae 12-2) was 100 µg/mL (≈ 450 µM) and the MIC (Streptococcus pneumoniae; Streptococcus pneumoniae 12-3) was 200 µg/mL (≈ 899 µM). The MIC (Streptococcus pneumoniae; Streptococcus pneumoniae 12-4) was 200 µg/mL (≈ 899 µM), the MIC (Streptococcus pneumoniae; Streptococcus pneumoniae 12-5) was 100 µg/mL (≈ 450 µM) and the “content of NO, PGE-2, TNF-α in the hind paw” value ([2]; inflammatory rats, high dosage) was “significantly reduce”. For the same compound, the carrageenan-induced paw edema ([2]; rats, dose-dependent) was “effectively inhibit”, the MIC (Streptococcus agalactiae) was 50 µg/mL (≈ 225 µM) and the MIC (Staphylococcus sciuri) was 50 µg/mL (≈ 225 µM). The MIC ([3]; Staphylococcus aureus MSSA 10-38) was 1.5 µg/mL (≈ 6.75 µM), the MIC ([3]; Staphylococcus aureus MSSA 10-40) was 1.5 µg/mL (≈ 6.75 µM) and the MIC ([3]; Staphylococcus aureus MSSA 10-41) was 1.5 µg/mL (≈ 6.75 µM). For the same compound, the MIC ([3]; Staphylococcus aureus MSSA 12-11) was 128 µg/mL (≈ 576 µM), the MIC ([3]; Staphylococcus aureus MSSA 12-13) was 128 µg/mL (≈ 576 µM) and the MIC ([3]; Staphylococcus aureus MSSA 12-14) was 64 µg/mL (≈ 288 µM). The MIC ([3]; Staphylococcus aureus MSSA 12-15) was 128 µg/mL (≈ 576 µM), the MIC ([3]; Staphylococcus aureus MSSA 12-16) was 64 µg/mL (≈ 288 µM) and the MIC ([3]; Staphylococcus aureus MSSA 12-17) was 64 µg/mL (≈ 288 µM). The MIC ([3]; Staphylococcus aureus MSSA 12-18) was 128 µg/mL (≈ 576 µM), the MIC ([3]; Staphylococcus aureus MSSA 12-19) was 128 µg/mL (≈ 576 µM) and the MIC ([3]; Staphylococcus aureus MSSA 12-20) was 64 µg/mL (≈ 288 µM). The MIC ([3]; Staphylococcus aureus MSSA 12-21) was 64 µg/mL (≈ 288 µM), the MIC ([4]; Staphylococcus epidermidis MSSE 10-43) was 1.5 µg/mL (≈ 6.75 µM) and the MIC ([4]; Staphylococcus epidermidis MSSE 10-44) was 1.5 µg/mL (≈ 6.75 µM). The MIC ([4]; Staphylococcus epidermidis MSSE 12-11) was 32 µg/mL (≈ 144 µM), the MIC ([4]; Staphylococcus epidermidis MSSE 12-12) was 32 µg/mL (≈ 144 µM) and the MIC ([4]; Staphylococcus epidermidis MSSE 12-13) was 64 µg/mL (≈ 288 µM). For the same compound, the MIC ([4]; Staphylococcus epidermidis MSSE 12-14) was 64 µg/mL (≈ 288 µM), the MIC ([4]; Staphylococcus epidermidis MSSE 12-15) was 64 µg/mL (≈ 288 µM) and the MIC ([4]; Staphylococcus epidermidis MSSE 12-16) was 32 µg/mL (≈ 144 µM). The MIC ([4]; Staphylococcus epidermidis MSSE 12-17) was 32 µg/mL (≈ 144 µM), the MIC ([4]; Staphylococcus epidermidis MSSE 12-18) was 32 µg/mL (≈ 144 µM) and the MIC ([4]; Staphylococcus epidermidis MSSE 12-19) was 32 µg/mL (≈ 144 µM). The MIC ([4]; Staphylococcus epidermidis MSSE 12-20) was 64 µg/mL (≈ 288 µM), the MIC (Klebsiella pneumonia E^-; Klebsiella pneumonia E^- 10-18) was >768 µg/mL and the MIC (Klebsiella pneumonia E^-; Klebsiella pneumoniae, Klebsiella pneumonia E^- 10-16, read-out: MIC) was > 768 µg/mL. The MIC (Staphylococcus xylosus; Staphylococcus xylosus 12-1 (first line, r17), read-out: MIC) was 100 µg/mL (≈ 450 µM), the MIC (Staphylococcus xylosus; Staphylococcus xylosus 12-1 (second line, r18)) was 100 µg/mL (≈ 450 µM) and the MIC (Shiglla flexneri; Shiglla flexneri 12-1) was 400 µg/mL (≈ 1800 µM). The MIC (Shiglla flexneri; Shiglla flexneri 12-2, read-out: MIC) was 50 µg/mL (≈ 225 µM), the MIC (Escherichia coli E^+; Escherichia coli E^+ 10-7) was > 768 µg/mL and the MIC (Escherichia coli E^+; Escherichia coli E^+ 10-9) was > 768 µg/mL. The MIC (Klebsiella pneumonia E^+; Klebsiella pneumonia E^+ 10-2) was > 768 µg/mL, the MIC (Klebsiella pneumonia E^+; Klebsiella pneumonia E^+ 10-6) was > 768 µg/mL and the MIC (Enterobacter cloacae; Enterobacter cloacae 12-1, read-out: MIC) was 50 µg/mL (≈ 225 µM). For the same compound, the MIC (Enterobacter cloacae; Enterobacter cloacae 12-2) was 50 µg/mL (≈ 225 µM), the MIC (Kurthia gibsonii; Kurthia gibsonii 12-1, read-out: MIC) was 50 µg/mL (≈ 225 µM) and the MIC (Kurthia gibsonii; Kurthia gibsonii 12-2) was 50 µg/mL (≈ 225 µM).
